Measurements from patent US20180200257A1, “METHODS FOR THE TREATMENT OF INFLAMMATORY DISORDERS” (Galapagos NV, priority 2015, published 2018).

System: subjects with moderately to severely active RA who have an inadequate response to methotrexate (MTX)
Experiment: Study 2 (monotherapy) - Alanine Aminotransferase (ALT) levels
Format: in vivo, human
Source text: Randomized, double-blind, placebo-controlled, multicenter, phase IIb dose finding study of Compound 1 (dosed as a [Compound 1:HCl:3H2O]) administered for 24 weeks as monotherapy to subjects with moderately to severely active rheumatoid arthritis who have an inadequate response to methotrexate alone
Double-blind, placebo-controlled, monotherapy study in subjects with moderately to severely active RA who have an inadequate response to methotrexate (MTX) (oral or parenteral).
280 subjects randomized to one of 3 doses of Compound 1 (dosed as a [Compound 1:HCl:3H2O]) or to placebo, given once daily (q.d.).
Twelve weeks of treatment with Compound 1 (dosed as a [Compound 1:HCl:3H2O]) at 50 mg, 100 mg, or 200 mg q.d.; or placebo. At Week 12, all subjects on placebo and the subjects on the 50 mg dose who have not achieved 20% improvement in swollen joint count (SJC66) and tender joint count (TJC68) will be assigned to 100 mg q.d. in a blinded fashion and will continue treatment until Week 24. Subjects in the other groups will maintain their randomized treatment until Week 24.
ALT levels determination is available at Quest Diagnostics, Clinical Trials, Quest House, 125-135 Staines Road, Hounslow, Middlesex, TW3 3JB, United Kingdom under Catalogue n#84460.
ALT catalyzes the exchange of the amino group of alanine with the oxogroup of 2-ketoglutarate to form pyruvate and glutamate. In the presence of lactic dehydrogenase, pyruvate reacts with NADH to form NAD+, measured spectrophotometrically. Guidelines for the ALT value have been issued by the association for Clinical Biochemistry and Laboratory Medicine, 130-132 Tooley Street LONDON SE1 2TU, united Kingdom, wherein the ALT value should be below 34 U/l in Female and below 52 U/L in male.
Subjects in the other groups maintained their randomized treatment until Week 24.

[1] = 12 weeks results, 50 mg q.d., week 1
[2] = 12 weeks results, 50 mg q.d., week 2
[3] = 12 weeks results, 50 mg q.d., week 4
[4] = 12 weeks results, 50 mg q.d., week 8
[5] = 12 weeks results, 50 mg q.d., week 12
[6] = 12 weeks results, 100 mg q.d., week 1
[7] = 12 weeks results, 100 mg q.d., week 2
[8] = 12 weeks results, 100 mg q.d., week 4
[9] = 12 weeks results, 100 mg q.d., week 8
[10] = 12 weeks results, 100 mg q.d., week 12
[11] = 12 weeks results, 200 mg q.d., week 1
[12] = 12 weeks results, 200 mg q.d., week 2
[13] = 12 weeks results, 200 mg q.d., week 4
[14] = 12 weeks results, 200 mg q.d., week 8
[15] = 12 weeks results, 200 mg q.d., week 12
[16] = 24 weeks results, 50 mg q.d. non responders switching to 100 mg q.d. at week 12, week 1
[17] = 24 weeks results, 50 mg q.d. non responders switching to 100 mg q.d. at week 12, week 2
[18] = 24 weeks results, 50 mg q.d. non responders switching to 100 mg q.d. at week 12, week 4
[19] = 24 weeks results, 50 mg q.d. non responders switching to 100 mg q.d. at week 12, week 8
[20] = 24 weeks results, 50 mg q.d. non responders switching to 100 mg q.d. at week 12, week 12
[21] = 24 weeks results, 50 mg q.d. non responders switching to 100 mg q.d. at week 12, week 16
[22] = 24 weeks results, 50 mg q.d. non responders switching to 100 mg q.d. at week 12, week 20
[23] = 24 weeks results, 50 mg q.d. non responders switching to 100 mg q.d. at week 12, week 24
[24] = 24 weeks results, 50 mg q.d. responders, week 1
[25] = 24 weeks results, 50 mg q.d. responders, week 2
[26] = 24 weeks results, 50 mg q.d. responders, week 4
[27] = 24 weeks results, 50 mg q.d. responders, week 8
[28] = 24 weeks results, 50 mg q.d. responders, week 12
[29] = 24 weeks results, 50 mg q.d. responders, week 16
[30] = 24 weeks results, 50 mg q.d. responders, week 20
[31] = 24 weeks results, 50 mg q.d. responders, week 24
[32] = 24 weeks results, 100 mg q.d., week 1
[33] = 24 weeks results, 100 mg q.d., week 2
[34] = 24 weeks results, 100 mg q.d., week 4
[35] = 24 weeks results, 100 mg q.d., week 8
[36] = 24 weeks results, 100 mg q.d., week 12
[37] = 24 weeks results, 100 mg q.d., week 16
[38] = 24 weeks results, 100 mg q.d., week 20
[39] = 24 weeks results, 100 mg q.d., week 24
[40] = 24 weeks results, 200 mg q.d., week 1
[41] = 24 weeks results, 200 mg q.d., week 2
[42] = 24 weeks results, 200 mg q.d., week 4
[43] = 24 weeks results, 200 mg q.d., week 8
[44] = 24 weeks results, 200 mg q.d., week 12
[45] = 24 weeks results, 200 mg q.d., week 16
[46] = 24 weeks results, 200 mg q.d., week 20
[47] = 24 weeks results, 200 mg q.d., week 24
[48] = 24 weeks results, placebo switching to 100 mg q.d. at week 12, week 16
[49] = 24 weeks results, placebo switching to 100 mg q.d. at week 12, week 20
[50] = 24 weeks results, placebo switching to 100 mg q.d. at week 12, week 24

O=C(Nc1nc2cccc(-c3ccc(CN4CCS(=O)(=O)CC4)cc3)n2n1)C1CC1 [Compound 1, cyclopropanecarboxylic acid {5-[4-(1,1-dioxo-thiomorpholin-4-ylmethyl)-phenyl]-[1,2,4]triazolo[1,5-a]pyridin-2-yl}-amide]
Study 2 - ALT Mean CFB [1]: −1.4 IU/L | Study 2 - ALT Mean percentage CFB [1]: −1.29% | Study 2 - ALT Mean CFB [2]: −2.6 IU/L | Study 2 - ALT Mean percentage CFB [2]: −3.25% | Study 2 - ALT Mean CFB [3]: −2.2 IU/L | Study 2 - ALT Mean percentage CFB [3]: −3.73% | Study 2 - ALT Mean CFB [4]: −3.0 IU/L | Study 2 - ALT Mean percentage CFB [4]: −0.73% | Study 2 - ALT Mean CFB [5]: −1.4 IU/L | Study 2 - ALT Mean percentage CFB [5]: 1.77% | Study 2 - ALT Mean CFB [6]: 0.4 IU/L | Study 2 - ALT Mean percentage CFB [6]: 13.98% | Study 2 - ALT Mean CFB [7]: 0.7 IU/L | Study 2 - ALT Mean percentage CFB [7]: 13.25% | Study 2 - ALT Mean CFB [8]: 0.3 IU/L | Study 2 - ALT Mean percentage CFB [8]: 17.82% | Study 2 - ALT Mean CFB [9]: −0.5 IU/L | Study 2 - ALT Mean percentage CFB [9]: 7.83% | Study 2 - ALT Mean CFB [10]: 1.3 IU/L | Study 2 - ALT Mean percentage CFB [10]: 14.61% | Study 2 - ALT Mean CFB [11]: −1.8 IU/L | Study 2 - ALT Mean percentage CFB [11]: −0.92% | Study 2 - ALT Mean CFB [12]: −1.1 IU/L | Study 2 - ALT Mean percentage CFB [12]: 1.07% | Study 2 - ALT Mean CFB [13]: −1.4 IU/L | Study 2 - ALT Mean percentage CFB [13]: 4.71% | Study 2 - ALT Mean CFB [14]: −0.8 IU/L | Study 2 - ALT Mean percentage CFB [14]: 8.41% | Study 2 - ALT Mean CFB [15]: −1.1 IU/L | Study 2 - ALT Mean percentage CFB [15]: 5.69% | Study 2 - ALT Mean CFB [16]: −0.1 IU/L | Study 2 - ALT Mean percentage CFB [16]: 0.97% | Study 2 - ALT Mean CFB [17]: −0.2 IU/L | Study 2 - ALT Mean percentage CFB [17]: −0.54% | Study 2 - ALT Mean CFB [18]: 0.6 IU/L | Study 2 - ALT Mean percentage CFB [18]: 4.48% | Study 2 - ALT Mean CFB [19]: −1.3 IU/L | Study 2 - ALT Mean percentage CFB [19]: −4.46% | Study 2 - ALT Mean CFB [20]: −0.9 IU/L | Study 2 - ALT Mean percentage CFB [20]: −1.26% | Study 2 - ALT Mean CFB [21]: 0.9 IU/L | Study 2 - ALT Mean percentage CFB [21]: 6.27% | Study 2 - ALT Mean CFB [22]: 0.3 IU/L | Study 2 - ALT Mean percentage CFB [22]: 4.86% | Study 2 - ALT Mean CFB [23]: 3.2 IU/L | Study 2 - ALT Mean percentage CFB [23]: 22.47% | Study 2 - ALT Mean CFB [24]: −1.7 IU/L | Study 2 - ALT Mean percentage CFB [24]: −1.89% | Study 2 - ALT Mean CFB [25]: −3.3 IU/L | Study 2 - ALT Mean percentage CFB [25]: −3.98% | Study 2 - ALT Mean CFB [26]: −3.0 IU/L | Study 2 - ALT Mean percentage CFB [26]: −5.93% | Study 2 - ALT Mean CFB [27]: −3.4 IU/L | Study 2 - ALT Mean percentage CFB [27]: 0.30% | Study 2 - ALT Mean CFB [28]: −1.6 IU/L | Study 2 - ALT Mean percentage CFB [28]: 2.63% | Study 2 - ALT Mean CFB [29]: −0.2 IU/L | Study 2 - ALT Mean percentage CFB [29]: 17.03% | Study 2 - ALT Mean CFB [30]: −0.5 IU/L | Study 2 - ALT Mean percentage CFB [30]: 8.38% | Study 2 - ALT Mean CFB [31]: −0.2 IU/L | Study 2 - ALT Mean percentage CFB [31]: 16.54% | Study 2 - ALT Mean CFB [32]: 0.4 IU/L | Study 2 - ALT Mean percentage CFB [32]: 13.98% | Study 2 - ALT Mean CFB [33]: 0.7 IU/L | Study 2 - ALT Mean percentage CFB [33]: 13.25% | Study 2 - ALT Mean CFB [34]: 0.3 IU/L | Study 2 - ALT Mean percentage CFB [34]: 17.82% | Study 2 - ALT Mean CFB [35]: −0.5 IU/L | Study 2 - ALT Mean percentage CFB [35]: 7.83% | Study 2 - ALT Mean CFB [36]: 1.3 IU/L | Study 2 - ALT Mean percentage CFB [36]: 14.61% | Study 2 - ALT Mean CFB [37]: 4.1 IU/L | Study 2 - ALT Mean percentage CFB [37]: 25.66% | Study 2 - ALT Mean CFB [38]: 1.8 IU/L | Study 2 - ALT Mean percentage CFB [38]: 37.63% | Study 2 - ALT Mean CFB [39]: 0.4 IU/L | Study 2 - ALT Mean percentage CFB [39]: 20.33% | Study 2 - ALT Mean CFB [40]: −1.8 IU/L | Study 2 - ALT Mean percentage CFB [40]: −0.92% | Study 2 - ALT Mean CFB [41]: −1.1 IU/L | Study 2 - ALT Mean percentage CFB [41]: 1.07% | Study 2 - ALT Mean CFB [42]: −1.4 IU/L | Study 2 - ALT Mean percentage CFB [42]: 4.71% | Study 2 - ALT Mean CFB [43]: −0.8 IU/L | Study 2 - ALT Mean percentage CFB [43]: 8.41% | Study 2 - ALT Mean CFB [44]: −1.1 IU/L | Study 2 - ALT Mean percentage CFB [44]: 5.69% | Study 2 - ALT Mean CFB [45]: 0.4 IU/L | Study 2 - ALT Mean percentage CFB [45]: 17.47% | Study 2 - ALT Mean CFB [46]: −0.6 IU/L | Study 2 - ALT Mean percentage CFB [46]: 6.69% | Study 2 - ALT Mean CFB [47]: −1.3 IU/L | Study 2 - ALT Mean percentage CFB [47]: 5.83% | Study 2 - ALT Mean CFB [48]: 0.4 IU/L | Study 2 - ALT Mean percentage CFB [48]: 15.03% | Study 2 - ALT Mean CFB [49]: 0.8 IU/L | Study 2 - ALT Mean percentage CFB [49]: 17.28% | Study 2 - ALT Mean CFB [50]: 0.9 IU/L | Study 2 - ALT Mean percentage CFB [50]: 18.10%
